Laboratory results taken from patent publication US20240206469A1, “PHOSPHORUS USE EFFICIENCY ENHANCERS AS PLANT GROWTH PROMOTORS” (EUROCHEM ANTWERPEN, priority 2021, published 2024).

Columns and labels:
Assay type in all cases: in vivo, Arabidopsis thaliana
Arabidopsis root hairs = test: Root hair number and length quantification
Method: All Arabidopsis plant experiments were performed using the Arabidopsis thaliana Columbia-0 background. The Arabidopsis pSPX1::GUS line is described in the Plant Journal 2008, 54: 965-975. For rice, the cultivar Nipponbare was used. For maize, the cultivars DKC 2931 and B104 were used for regular pot experiments and sand-based pot experiments, respectively. For soybean, the cultivar Primus was used. […] The medium was solidified due to the addition of 0.6% Gelrite, unless stated otherwise. In case of vertical plates (root length and root hair measurements), the medium was supplied with 0.5% of sucrose and 1 μM (low phosphate, 1 μM KH2PO4, 9.9 mM KCl), 10 μM (low phosphate 10 μM KH2PO4, 9.9 mM KCl) or 1.25 mM KH2PO4 (high phosphate). Arabidopsis seeds were stratified for 2 days at 4° C. before germination. Seedlings were germinated in climate-controlled growth chambers at 22° C. under continuous light (100 μmol m^−2 s^−1). Husked rice seeds were germinated on wetted Whatman paper for 2 days at 37° C. and then transferred to Sterivent boxes or square Petri dishes with solid medium. Maize and soybean seeds were wetted 24 hours at room temperature prior to sowing in pots.
Roots were imaged using a stereomicroscope or a VHX-6000. Number and length of the root hairs parallel to the medium surface was determined at 4 to 6 mm above the root meristem. Root hair length was measured using the ImageJ software.

Arabidopsis [1] = test: Arabidopsis pot experiment (rosette size, soil phosphate, anthocyanin)
Method: Regular Arabidopsis, soybean and maize pot experiments used an unfertilized potting soil, which was supplemented at the start of the experiment with 50 ml H2O containing 0.25 g/l NH4NO3 and 0.44 g/l (high phosphate) or no (maize and soybean) or 0.11 g/l KH2PO (Arabidopsis) for low phosphate conditions. For the sand-based maize pot experiment, sand was supplemented with 50 ml H2O containing 0.25 g/l NH4NO3 and 0.38 g/l (high phosphate) or 0.02 g/l (low phosphate) KH2PO4. Potassium was balanced via addition of KCl. Compound concentration was 10 μM, calculated based on the total water content after watering, and was added at the start of the experiment (Arabidopsis) or once a week (maize). Indexed chlorophyll contents were received via a SPAD 502 Plus Chlorophyll Meter. All parameters in the sand experiment, except the rate of leaf 4 (measured the first 4 days after emergence), were measured 19 days after sowing. Measurements in the pot experiments with potting soil were done after 4 weeks of growth, except for leaf 5, which was measured at 26 days. One long-term maize pot experiment was conducted with the DKC 2931 (2.5 months) and B104 (3 months) cultivars on the PHENOVISION phenotyping platform as described in Frontiers in Plant Science 2021, 12: 640914, except that an unfertilized potting soil was used and that plants were fertilized with a low-phosphate Hoagland solution. The 2.5× overconcentrated low-phosphate Hoagland solution contained 0.034 g/l KH2PO and 200 mL of this solution was applied twice a week. 1.4 mL of a 10 mM compound solution was added each two weeks to each pot, corresponding to 9.6 mg/g nutrients. 13 plants per condition were used. During the experiment, pictures were taken twice a week for each plants from 6 different angles and the top. […] Extraction and quantification of anthocyanin levels was carried out according to The Plant cell 2013, 25:1641-1656. Anthocyanin levels were quantified by measuring absorption at 530 and 657 nm using a spectrophotometer and normalized to fresh weight input, and expressed relative to the low phosphate control. […]

Arabidopsis [2] = test: Arabidopsis horizontal plate leaf area assay; conditions: 21 days after germination
Method: All Arabidopsis plant experiments were performed using the Arabidopsis thaliana Columbia-0 background. The Arabidopsis pSPX1::GUS line is described in the Plant Journal 2008, 54: 965-975. For rice, the cultivar Nipponbare was used. For maize, the cultivars DKC 2931 and B104 were used for regular pot experiments and sand-based pot experiments, respectively. For soybean, the cultivar Primus was used. […] The medium was solidified due to the addition of 0.6% Gelrite, unless stated otherwise. […]
Arabidopsis primary root growth experiments were done on MS1/2 on vertical standing plates and roots were measured 11 days after germination. Roots were imaged using a flatbed scanner (EPSON Expression 11000XL) and root length was measured using ImageJ software. Arabidopsis shoot biomass was determined in 11 days after germination and growth on vertical standing plates with modMS. Arabidopsis leaf area was measured 21 days after germination on horizontal plates with modMS medium. Plates were scanned from the top using a flatbed scanner (EPSON Expression 11000XL) and the visible leaf area was measured using ImageJ software. […] Plant height was measured 11 days after germination. […] Plant height was measured 13 days after germination. […]

SMILES: CC1CN(CC(=O)c2c(N)n(C)c(=O)n(C)c2=O)c2ccccc2O1 (stereo not shown) [Compound 8, 6-amino-1,3-dimethyl-5-[2-(2-methyl-2,3-dihydro-1,4-benzoxazin-4-yl)acetyl]pyrimidine-2,4-dione]
- activity at 0.6 µM (Arabidopsis root hairs; Arabidopsis thaliana, 0.6 μM, read-out: Total root hair length per root (in % compared to the control)): 104%
- activity at 1.25 µM (Arabidopsis root hairs; Arabidopsis thaliana, 1.25 μM, read-out: Total root hair length per root (in % compared to the control)): 333%
- activity at 2.5 µM (Arabidopsis root hairs; Arabidopsis thaliana, 2.5 μM, read-out: Total root hair length per root (in % compared to the control)): 347%
- activity at 5 µM (Arabidopsis root hairs; Arabidopsis thaliana, 5 μM, read-out: Total root hair length per root (in % compared to the control)): 485%
- activity at 10 µM (Arabidopsis root hairs; Arabidopsis thaliana, 10 μM, read-out: Total root hair length per root (in % compared to the control)): 586%
- Average root hair length per root in high phosphate conditions (Arabidopsis root hairs; Arabidopsis vertical plate, high phosphate, control 0.11): 0.32 mm
- Root hair number in high phosphate conditions (one plane in 2 mm region) (Arabidopsis root hairs; Arabidopsis vertical plate, high phosphate, control 3): 9
- Total root hair length per root in high phosphate conditions (Arabidopsis root hairs; Arabidopsis vertical plate, high phosphate, control 57): 183 cm
- Relative anthocyanin level (Arabidopsis [1]; 4-week old plant, relative to low phosphate control = 1): 0.6
- Phosphate level in soil (relative value) (Arabidopsis [1]; after 4 weeks of growth, relative to low phosphate control = 1): 0.8
- Rosette size (Arabidopsis [1]; low phosphate, 10 μM, 4 weeks, control 17): 25 cm^2
- Leaf area (Arabidopsis [2]; low phosphate, 10 μM, control 78): 106 mm^2
- Leaf area in sub-optimal phosphate conditions (Arabidopsis [2]; sub-optimal phosphate, control 104): 143 mm^2
